The subject of assay [1] is oestrogen responsive SEAP reporter gene (ERE) in MCF-7 cells. Put plainly: Oestrogen-responsive SEAP reporter gene assay in transfected MCF-7 cells. The class given is cell-based, human. As to conditions: for fold increase in SEAP expression / SEAP reporter gene expression/activity, compound alone: 1 μM; for fold increase in SEAP expression: compound alone; for SEAP reporter gene expression/activity, compound alone: vs. control; for SEAP activity in combination with E2: 1 μM compound + 10 nM E2. The procedure: In addition to the ERβ binding assay, oestrogenic activity was determined by an oestrogen-responsive reporter gene assay consisting of MCF-7 cells transfected with a construct containing a secreted alkaline phosphatase (SEAP) gene that is induced through an oestrogen response element (ERE). MCF-7 (HTB-22) human breast cancer cells (obtained from American Type Culture Collection, Manassas, VA) were maintained in Dulbecco’s modified Eagle’s medium containing 10% FBS and 100 U/mL penicillin and 100 μg/mL streptomycin in 75 cm^2 flasks. Forty-eight hours prior to transfection, the cells were maintained in phenol red free DMEM medium supplemented with 0.5% FCS, in a humidified atmosphere with 5% CO2 at 37 °C. For transfection, 0.5 × 10^5 cells were seeded per well of a 96-well plate in OPTI-MEM supplemented with dextran-charcoal stripped FBS. After 4 h, serum concentration was reduced to 1%. Prior to transfection, cells were washed with DMEM and incubated in phenol red-free OPTI-MEM without FBS as described by Nozawa et al. ([2005]).
The cells were transfected with the reporter vector pERE-TA-SEAP, coding for the SEAP gene (Clontech, Palo Alto, CA) (Cullen and Malim [1992]; Treeck et al. [2003]). MCF-7 cells were transfected using 0.5 μL Lipofectamine 2000 (Invitrogen, Carlsbad, CA), and 0.1 μg plasmid DNA including the SEAP vector per well of a 96-well plate according to the manufacturer’s instructions. As a negative control, cells were transfected with reporter vector pTA-SEAP2 using Lipofectamine 2000. After 12 h of transfection, the media were replaced with phenol-free Dulbecco’s modified Eagle’s medium containing 10% dextran-coated charcoal stripped FBS. Cells were treated with 1 μM 1–3 with and without 10 nM E2 or 1 μM ICI 182,780. Estradiol was used as the positive control and DMSO as the negative control. Cells were treated for 12 h, then the medium was harvested, centrifuged and 25 μL from each well was transferred to a new 96 well plate. The SEAP activity was measured using the Great EscAPe SEAP Chemiluminescence High-Throughput Detection Kit (Clontech, Palo Alto, CA) using a 96-well luminometer according to the manufacturer’s instructions. To assess novel mechanisms of action other than ER, we tested the extract and fractions in a HER2/neu tyrosine kinase assays (Barbacci et al. [2003]; HTScan HER2/ErbB2 kinase Assay Kit, Cell Signaling Tech., 96-well plates, high throughput), using the methods as described by the manufacturer.

Assay [2] has as its system MCF-7 cells. Put plainly: Cell viability assay (CellTiter-Glo 2.0), MCF-7. The class given is cell-based. As to conditions: Homo sapiens, MCF7; MCF-7, 72 h; read-out: IC50 (cell growth). The protocol:
(§1) MCF-7 and AGS cells were seeded at 2.5 × 10^4 cells in 100 µL/well while NCI-N87 was seeded at 5.0 × 10^4 cells in 100 µL/well in opaque-walled 96-well plate. Control wells containing medium (supplemented with 10% FBS and 1% penicillin/streptomycin) without cells to determine background luminescence were also prepared. The cells were left to attach overnight in the plate. Culture medium was aspirated and fresh medium added to the wells before reconstituted extracts of P. dioica (methanol extract, 50% methanol fraction) and isolated compounds (1–3, and quercitrin) at 100, 50, 20, 10 and 5 µg/mL were added to experimental wells. Drug controls (5-fluorouracil and doxorubicin) and vehicle control (0.02% DMSO) wells were also prepared simultaneously, and the plate was incubated in a humidified incubator at 37 °C in an atmosphere of 5% CO2 for 72 h. At the end of the incubation period, the plate and its contents were equilibrated to room temperature for approximately 30 min. A 100 µL volume of CellTiter-Glo 2.0 Reagent (Promega Corporation, Madison, WI) was added to each well. The contents were mixed for 2 min on an orbital shaker to induce cell lysis and the plate was incubated at room temperature for 10 min to stabilize the luminescent signal. Luminescence signal was read using the Synergy HT Plate reader (Biotek, Winooski, VT) and Gen5 1.11 software. The IC50 defined as the concentration that causes 50% inhibition of cell growth after exposure to extract for 72 h was calculated using log (inhibitor) vs. normalized response analysis with GraphPad Prism 7 (GraphPad Software, Inc., La Jolla, CA).

In assay [3] the test system is AGS cells. Nature of the assay: Cell viability assay (CellTiter-Glo 2.0), AGS. The format is cell-based. As to conditions: Homo sapiens, 72 h, read-out: IC50 (cell growth). The procedure: as §1
The test system of assay [4] is NCI-N87 cells. Nature of the assay: Cell viability assay (CellTiter-Glo 2.0), NCI-N87. The format is cell-based. As to conditions: Homo sapiens, NCI-N87, 72 h; read-out: IC50 (cell growth). The protocol:
as §1
On the technique in general: In ATP-based viability assays light output follows the ATP content of the culture.

Assay [5] relates to caspase 8 in MCF-7 cells. Nature of the assay: Caspase-Glo 8 apoptosis assay in MCF-7 cells. The class given is cell-based, human. As to conditions: compound 2 at IC50 concentration (55 µg/mL), 2 h. The protocol: MCF-7 cells were seeded in triplicate at a density of 3.0 × 10^4 cells in 100 µL/well in opaque-walled 96-well plates. The cells were left to attach overnight in the plate. Compound 2 at 55 µg/mL was added to the test wells. Caspase-Glo® 8 Reagents (Promega Corporation, Madison, WI) were prepared according to manufacturer’s instruction and allowed to equilibrate to room temperature. The test plates containing treated cells as well as controls were removed from the incubator after 2 h of incubation and allowed to equilibrate to room temperature. A 100 μL volume of Caspase-Glo® 8 Reagent was added to each well of a 96-well plate containing 100 μL of cell culture medium (blank), non-treated cells (negative control) in culture medium, and treated cells in culture medium. The contents of wells were gently mixed using a plate shaker at 300–500 rpm for 30 s and incubated at room temperature for 1 h. The luminescence of each sample was read using the Synergy HT Plate reader (Biotek, Winooski, VT) and Gen5 1.11 software.

For assay [6], the system named is MCF-7 cells. Nature of the assay: ApoTox-Glo triplex assay (viability, cytotoxicity, caspase 3/7) in MCF-7 cells. The class given is cell-based, human. To be noted: MCF-7, 55 µg/mL. The procedure:
Ninety-six (96) well assay plates containing MCF-7 cells in medium at a density of 1.0 × 10^4 cells in 100 µL/well in triplicate were set up. […] Plates were incubated appropriately before addition of 20 μL of viability/cytotoxicity reagent containing both GF-AFC substrate and bis-AAF-R110 substrate to all wells and briefly mixed by orbital shaking (300–500 rpm for ∼30 s). Plates were incubated for 30 min at 37 °C and fluorescence was measured at 400ex/505em (viability) and 485ex/520em (cytotoxicity). A 100 μL volume of Caspase-Glo® 3/7 reagent was added to all wells, briefly mixed by orbital shaking (300–500 rpm for ∼30 s), and incubated for 30 min at room temperature. Luminescence was measured using the Synergy HT Plate reader (Biotek, Winooski, VT) and Gen 5 1.11 software to detect caspase activation.

Assay [7] relates to Bcl-2 and Bax mRNA in MCF-7 cells. Nature of the assay: qPCR for apoptotic gene expression in MCF-7 cells. The class given is cell-based, human. To be noted: MCF-7, at the IC50, 24 h. The protocol: MCF-7 cells were seeded at a density of 1 × 10^6 cells per well in a six-well plate and incubated overnight for cell attachment. […] Vehicle-treated control cells served as the negative control. The concentration and quality of RNA were determined by measuring absorbance at 260 nm and 280 nm on SynergyHT Take 3 session (Biotek, Winooski, VT) and Gen5 1.11 software.
Total RNA was reverse transcribed and amplified using Power SYBR Green RNA-to-CT 1-step kit (Applied Biosystems, Foster City, CA) as described by manufacturer using a Step-One Plus Real Time PCR System (Applied Biosystem, Foster City, CA). Briefly, each reaction was performed in triplicate in a 10 μL volume containing Power SYBR Green RT-PCR Mix (2×), 200 nM of each primers, RT Enzyme Mix (125×) and 100 ng RNA. The cycling conditions were as follows: 48 °C for 30 min, 95 °C for 10 min, followed by 50 cycles of 95 °C for 15 s and 60 °C for 1 min. PCR reaction specificity was confirmed by melt curve analysis at 95 °C for 15 s, 60 °C for 15 s, 95 °C for 15 s. The quantitation of gene expression was performed using β-actin as an endogenous control and relative to the calibrator (control cells) using the ΔΔCt method. Melting curves for each primer set were performed prior to the use of the primers.
(In qPCR the cycle at which signal appears reflects the starting amount.)

Assay [8] has as its target T1, full-length ERβ (Homo sapiens, UniProt Q92731).
T1 construct: host or cells: Sf9 insect cells
Nature of the assay: Competitive radioligand oestrogen receptor binding assay (3H-estradiol). To be noted: 0.5 nM 3H-estradiol; tested at 20–100 μg/mL. The protocol: A competitive radioligand-binding assay using full-length ERβ was used in the bioassay-guided fractionation of the crude methanol extract. The assay was performed as previously described (Obourn et al. [1993]; Doyle et al. [2009]). Briefly, recombinant human oestrogen receptor from insect Sf9 cells (α or β) was incubated with the test sample (50 μg/mL) plus 0.5 nM 3H-estradiol at 4 °C overnight. At the completion of incubation, 100 μL of a 50% hydroxylapatite slurry (in […] Tris, pH 7.4, 1 mM EDTA, 1 mM EGTA) was added and allowed to bind the ER-ligand complex for 40 min. The hydroxylapatite was washed three times with 0.5 mL of 40 mM Tris, pH 7.4, 1 mM EDTA, 1 mM EGTA and 11 mM KCl. The hydroxylapatite pellets were suspended in 1 mL of ethanol and counted in 5 mL of scintillation fluid, and the receptor-bound 3H-estradiol was measured. […] The median inhibitory concentration of 1 was determined by testing at concentrations of 20–100 μg/mL. All tests were performed in triplicate, and the results were determined from three independent experiments.

Some results are limits rather than exact numbers.

T1 sequence (Q92731 whole entry): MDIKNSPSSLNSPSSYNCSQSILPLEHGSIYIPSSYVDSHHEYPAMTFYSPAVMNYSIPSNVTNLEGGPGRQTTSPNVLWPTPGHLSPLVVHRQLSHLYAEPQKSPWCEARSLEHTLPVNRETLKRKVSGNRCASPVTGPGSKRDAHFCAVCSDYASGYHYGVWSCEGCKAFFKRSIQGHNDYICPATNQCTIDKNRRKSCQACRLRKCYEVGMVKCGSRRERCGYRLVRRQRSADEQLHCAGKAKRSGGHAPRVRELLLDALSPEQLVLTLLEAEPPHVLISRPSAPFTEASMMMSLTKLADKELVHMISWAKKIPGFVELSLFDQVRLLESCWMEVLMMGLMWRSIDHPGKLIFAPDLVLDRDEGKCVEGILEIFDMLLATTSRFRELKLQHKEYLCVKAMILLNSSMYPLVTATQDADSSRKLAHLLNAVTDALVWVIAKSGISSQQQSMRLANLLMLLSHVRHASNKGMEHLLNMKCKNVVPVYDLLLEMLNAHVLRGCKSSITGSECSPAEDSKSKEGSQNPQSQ

As for `Cc1c(O)c(C)c2oc(-c3ccc(OC4OC(CO)C(O)C(O)C4O)cc3)cc(=O)c2c1O` (stereo not shown) [Compound 2, syzalterin-4′-O-glucopyranose], in assay [1], the “fold increase in SEAP expression” value came out at 6.0 fold and the “SEAP reporter gene expression/activity, compound alone” value is reported as “significantly increased SEAP activity”. Moreover, the IC50 – broadly, the concentration that gives 50% inhibition – in assay [2] came to 54.3 µg/mL. For the same molecule, the IC50 in assay [3] amounted to 38.1 µg/mL. For the same molecule, in assay [4], the IC50 is 51.2 µg/mL. In addition, in assay [5], the “caspase 8 activity” value is reported as “weakly enhanced”. In assay [6], the “apoptosis in MCF-7 cells” value was “induced apoptosis”. Moreover, in assay [7], the “Bax mRNA expression” value is “little effects”, the Bax/Bcl-2 ratio is recorded as about 3.5 and the “Bcl-2 mRNA expression” value is “decreased”.
As for `C[C@@H]1O[C@@H](Oc2c(-c3ccc(O)c(O)c3)oc3cc(O)cc(O)c3c2=O)[C@H](O)[C@H](O)[C@H]1O` [Quercitrin], the “SEAP activity in combination with E2” value in assay [1] was “some significant anti-oestrogenic effects”. The “SEAP reporter gene expression/activity, compound alone” value in assay [1] is “neither quercitrin nor 3 alone significantly enhanced SEAP activity”. Besides, the IC50 in assay [2], in assay [3] and in assay [4] was over 100 µg/mL in each case.
With `O=c1[nH]cc(F)c(=O)[nH]1` [Compound 5FU, 5-fluorouracil, reference compound], the IC50 in assay [2] worked out at 1.37 µg/mL; in assay [3] it was 18.6 µg/mL; in assay [4] it was 0.097 µg/mL.
For the molecule `Cc1c(O)c(C)c2oc(Oc3ccc(O)cc3)cc(=O)c2c1O` [Compound 1, 2-(p-hydroxyphenoxy)-6,8-dimethyl-5,7-dihydroxychromone], the IC50 in assay [8] was 390 µM; in assay [2] it was over 100 µg/mL; in assay [3] it was over 100 µg/mL; in assay [4], over 100 µg/mL. Moreover, the “SEAP activity in combination with E2” value in assay [1] was “did not enhance SEAP activity”. For the same molecule, the “SEAP expression in the presence of ICI 182,780” value in assay [1] (1 μM compound + 1 μM ICI 182,780) is recorded as “attenuated”. Moreover, the “fold increase in SEAP expression” value in assay [1] stood at 6.2 fold. The “SEAP reporter gene expression/activity, compound alone” value in assay [1] is given as “significantly enhanced”.
In the case of `COc1cccc2c1C(=O)c1c(O)c3c(c(O)c1C2=O)C[C@@](O)(C(=O)CO)C[C@@H]3O[C@H]1C[C@H](N)[C@H](O)[C@H](C)O1` [Doxo, doxorubicin, reference compound], the IC50 in assay [3] stood at 0.079 µg/mL; in assay [4] it was 0.048 µg/mL.

The record behind these values is article PMC6130578, “Isolation and identification of three new chromones from the leaves of Pimenta dioica with cytotoxic, oestrogenic and anti-oestrogenic effects” (Pharmaceutical Biology, 2018).
